For data set [1], the system named is Ndufs4-KO mouse model of Leigh syndrome. Put plainly: Biomarker evaluation study in Ndufs4-KO mouse model of Leigh syndrome. The format is in vivo. Particulars: Ndufs4-KO mice. As to the method: Study design. A biomarker evaluation study was performed to test Compound 4 in a mouse model of Leigh syndrome (B6.129S4-Ndufs4^tm1.1Rpa/J; JAX Stock #027058). All studies were performed under the approved IACUC protocol at Jackson Laboratories Bar Harbor ME. Three groups of mice were included in this study: (1) wild-type (WT) C57BL/6J mice (n=8), each receiving 20 mg/kg Compound 4 subcutaneously once per day starting at postnatal age 21 days (P21); (2) Ndufs4-KO mice (homozygous knock outs (“HOM”)) (“HOM Veh”) (n=8), each receiving vehicle (5% Kolliphor-ELP in 1×PBS at a dosage of 10 mL/kg/day) subcutaneously once per day starting at P21; and (3) Ndufs4-KO mice (“HOM Comp. 4, 20 mg/kg”) (n=8), each receiving 20 mg/kg Compound 4 subcutaneously per day starting at P21. From the age of P30, body weight and body temperature was measured daily. At the age of P30 and P40 animals were made to perform a forced exercise on an inclining treadmill for up to 15 minutes or reaching exhaustion whichever happened first. Retro-orbital blood collection (for plasma) was performed after each exercise session for L-Lactic acid level analysis using an enzymatic reaction (biochemical) method with colorimetric read out. The mice were sacrificed and necropsied at P45 or upon reaching a humane endpoint as determined by body conditioning and neurological scoring method developed by Jackson Laboratory for this animal model. Terminal plasma was collected via cardiocentesis post-euthanasia for mitokine analysis (GDF-15 and FGF-21) using an ELISA kit (Abcam: ab216947, ab212160). The manufacturer protocol was followed to generate a standard curve. Plasma was diluted 1:5 in phosphate buffered saline for the ELISA.
Statistical analysis. Kaplan Meier plot followed by chi squared test & two-way ANOVA followed by Dunnett's multiple comparisons test were performed using GraphPad Prism version 10.0.0, GraphPad Software (Boston, Massachusetts) (www.graphpad.com).

Data set [2] has the same test system. In words: Survival study in Ndufs4-KO mouse model of Leigh syndrome. It is filed as in vivo. Particulars: Ndufs4-KO mice. Here is the method: Study design. A survival study was performed to test Compound 4 in a whole body (WB)-Ndufs4-KO mouse model of Leigh syndrome (B6.129S4-Ndufs4^tm1.1Rpa/J; JAX Stock #027058; “Ndufs4-KO mice”). Defects in the non-enzymatic, nuclear-encoded protein, NDUFS4 (NADH dehydrogenase (ubiquinone) Fe—S protein 4), cause a Leigh-like phenotype in humans that results in death within 3-16 months after birth. Exon 2 of the mouse Ndufs4 gene has been excised in this knockout allele. Three groups of mice were included in this study: (1) wild-type (WT) C57BL/6J mice (n=12), each receiving 20 mg/kg Compound 4 subcutaneously once per day starting at postnatal age 21 days (P21); (2) Ndufs4-KO mice (homozygous knock outs (“HOM”)) (“HOM Vehicle”) (n=9), each receiving vehicle (5% Kolliphor-ELP in 1×PBS at a dosage of 10 mL/kg/day) subcutaneously once per day starting at P21; and (3) Ndufs4-KO mice (“HOM Comp. 4, 20 mg/kg”) (n=13), each receiving 20 mg/kg Compound 4 subcutaneously per day starting at P21. All studies were performed under the approved IACUC protocol at Jackson Laboratories (Bar Harbor, ME). The mice were sacrificed and necropsied upon reaching a humane endpoint as determined by body conditioning and neurological scoring method developed by Jackson Laboratory for this animal model. Terminal plasma was collected via cardiocentesis post euthanasia for future analysis.
Statistical analysis. Kaplan Meier plot followed by chi squared test were performed using GraphPad Prism version 10.0.0, GraphPad Software (Boston, Massachusetts) (www.graphpad.com).

Data set [3] is described as follows: Compound 4 pharmacokinetics and tissue exposure after five daily subcutaneous doses. The format is in vivo, C57BL/6 mice. Here is the method: Study design details: • Animals were allowed to acclimate to the test facility for at least two days prior to the beginning of the study. • Study animals were male C57BL/6 mice weighing approximately 18-25 grams each. • Fasting was not required for the study. • Body weights were recorded prior to dose administration. The volume of each dose delivered (mL/kg) was based on each individual animal's body weight. • This was a multiple dose serial PK dosed subcutaneously once daily over 5 days. Compound 4 was administered to two groups: Group 1 at 60 mg/kg and Group 2 at 180 mg/kg (6 and 18 mg/mL, 15% Kolliphor ELP in PBS, 10 mL/kg; N=3/group). Serial PK timepoints were collected following the 5th and final dose.
Sample collection details: • Serial blood samples were collected via tail vein snip. • Blood samples were collected into tubes with anticoagulant. Tubes were stored on wet ice until processed to plasma by centrifugation (3500 rpm at 5° C. for 10 minutes) within 20 minutes of collection. Sample aliquots of 20 μL were transferred into individual uniquely labeled matrix tubes and stored at nominal −80° C. until transferred to analytical chemistry for analysis. • Immediately following each terminal blood collection for all groups, animals were sacrificed and perfused with cold PBS. Heart and brain tissues were collected. • Perfusion methodology: The chest was opened lengthwise using scissors to expose the thoracic organs. A scalpel was used to cut a small hole into the left ventricle just large enough to insert a cannula tip. The cannula was attached to an appropriately sized tubing and syringe prefilled with cold PBS and primed to remove any air. The tip of the cannula was inserted into the left ventricle and directed into the ascending aorta. Hemostats were used to help keep the cannula in place during perfusion. A second hole was made in the right atrium to allow for the escape of fluid during the return circulation. The syringe attached to the cannula was manually pushed or placed into a pump programmed to infuse at 10 mL/min. Animals were perfused for a minimum of 3 minutes or more if needed (until the exiting fluid was clear).
• N=3/group; • Collections relative to the final dose: • Plasma: 60 mg/kg at 2 and 24 hr, 180 mg/kg at predose, 2, 8, and 24 hr • Heart and Brain: 24 hr (terminal, PBS-perfused); • RGA 2 bioanalysis.
• N=3/timepoint; • Collections relative to the final dose: • Plasma: 0.5, 2, 8, and 24 hr (terminal) • Heart and Brain: 0.5, 2, 8, and 24 hr (terminal, PBS-perfused) • RGA 2 bioanalysis.

Setting [4] is: 20 mg/kg SC daily, terminal plasma, FIG. 24C.
Setting [5] is: male, C57BL/6, mouse, in vivo, sc, 60 mg/kg.

For `CC1=C(C)C(=O)C(CC[C@](C)(O)CCCCCCCCC(F)(F)F)=C(C)C1=O` [Compound 4], the survival proportion result in data set [1] (20 mg/kg SC daily from P21 until P46, vs vehicle, FIG. 24A) is “improved survival proportion”. The “exercise-induced lactic acidosis (plasma lactate)” value in data set [1] (20 mg/kg SC daily, forced exercise at P30 and P40, FIG. 24B) is “mitigated exercise-induced lactic acidosis”. Besides, in data set [1] (setting [4]), the “plasma FGF-21” value is “normalizing trends” and the “plasma GDF-15” value is “significantly normalized”. For the same molecule, in data set [2] (20 mg/kg SC daily from P21), the “effect on survival, Gehan Breslow-Wilcoxon test P” value is less than 0.0001 and the “effect on survival, logrank test P” value is recorded as less than 0.0001. In data set [2] (20 mg/kg SC once per day from P21, vs vehicle, FIG. 23), the survival result was “significantly improved survival”. In addition, the time to steady-state in data set [3] (male, C57BL/6, mouse, in vivo, sc) is listed as no more than 5 days. Besides, in data set [3] (setting [5]), the AUClast/Dose came out at 257 kg·ng·h/mL/mg and the Cmax/Dose is 24.0 kg·ng/mL/mg. Further, the AUClast/Dose in data set [3] (male, C57BL/6, mouse, in vivo, sc, 180 mg/kg) was 273 kg·ng·h/mL/mg. The molecule also showed a C24/Dose in data set [3] (male, C57BL/6, mouse, in vivo, sc, 180 mg/kg, 24 h) of 1.48 kg·ng/mL/mg. Besides, in data set [3] (mouse tissue after 5 days), the “concentrations in heart versus brain” value was “Similar”. Further, the “C24 (trough) tissue exposure versus dose” value in data set [3] (mouse, in vivo) is “approximately proportional to dose”.

These data come from patent US20250144049A1, “METHODS, COMPOSITIONS, AND USES RELATED TO THE TREATMENT AND PREVENTION OF LEIGH SYNDROME” (Stealth BioTherapeutics Inc., priority 2023, published 2025).
